The source made the active and inactive calls. How the calls were made is not given here.
Tested on: Trypanosoma brucei growth inhibition, luminescence
Test: antitrypanosomal activity against T. brucei – luminescence (AID 1159562);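 further: parasites grew with compound for 24 h before the luminescence read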

IC50 | SMILES
13000 nM | CCNc1cc(-c2ccccn2)nc(Nc2ccccc2)n1
400 nM | CN(C)S(=O)(=O)c1ccc(Cl)c(C(=O)Nc2nc(-c3ccccn3)cs2)c1
10000 nM | COc1ccc(-c2cnc(NC(=O)c3cc(-c4ccccn4)n[nH]3)n2C)cc1
320 nM | CCN(CC)S(=O)(=O)c1ccc(C(=O)Nc2cc(C)nn2-c2nc(C)c(C)c(=O)[nH]2)cc1
630 nM | Cc1c(Nc2cc(C3CC3)[nH]n2)ccc(C#N)c1Cl
> 40000 nM (inactive) | O=C(Nc1nc2ccccc2[nH]1)c1ccc2nc[nH]c2c1
1000 nM | O=C(NCCc1nc(-c2ccc(F)c(F)c2)n[nH]1)C1CCCCC1
200 nM | CC(=O)NCCNc1cc(-c2ccnc(Nc3cccc(Cl)c3)n2)ccn1
> 40000 nM (inactive) | CCN(Cc1ccncc1)Cc1ccc(NC(=O)c2cc(-c3ccc(F)cc3)n[nH]2)cc1
1000 nM | O=C(Cn1cnc2c(-c3ccccc3)csc2c1=O)N1CCCCC1
> 40000 nM (inactive) | N#Cc1ccccc1S(=O)(=O)N1CCN(C(=O)CNC(=O)c2ccc3c(c2)OCO3)CC1
1000 nM | CN(C)S(=O)(=O)c1ccc(-c2cnc(N)c(-c3nc4ccc(F)cc4[nH]3)c2)cc1
> 40000 nM (inactive) | CC(C)Oc1cccc(N2CCC(C(=O)N3CCCN(C(C)C)CC3)CC2)c1
790 nM | O=C(NC(CO)c1ccc(F)cc1)c1ccc(-c2c[nH]c3ncccc23)s1 (centres undefined)
13000 nM | c1ccc(Nc2nc(-c3ccccn3)cc(N3CCOCC3)n2)cc1
400 nM | O=c1ccc2ccc(F)c3c2n1C[C@H]3CN1CCN(CC(O)c2cc3c(cn2)OCS3)CC1 (some centres undefined)
> 40000 nM (inactive) | O=c1oc2ccccc2n1C1CCN(Cc2ccccc2-c2cccnc2)CC1
160 nM | Cc1cc(NC(=O)C2CCCCC2)n(-c2nc3c(c(=O)[nH]2)CCC3)n1
320 nM | O=C(NCC(c1cccs1)N1CCOCC1)c1ccc([N+](=O)[O-])o1 (centres undefined)
40 nM | Cc1cnc(Nc2cc(Cc3ccccc3)nc(NC3CCC(O)CC3)n2)s1 (centres undefined)
> 40000 nM (inactive) | COc1ccccc1-n1c(SCC(=O)Nc2ccc3c(c2)OCO3)nc2c(c1=O)SCC2
200 nM | Cc1ncsc1CNc1cnc(-c2ccc3c(c2)OCCO3)c(-c2cnn(C)c2)c1
> 40000 nM (inactive) | O=C(N1CCc2ccccc2CC1)C1(C(=O)N2CCC(n3c(=O)[nH]c4ncccc43)CC2)CC1
630 nM | COc1cccc(NS(=O)(=O)c2ccc3[nH]cc(C(=O)NCCC(C)C)c(=O)c3c2)c1
2500 nM | COc1ccc(-c2ccc3nnc(-c4ccc(O)c(OC)c4)n3c2)cn1
10000 nM | CNc1nc(C)nc(N2CCc3cc(C(=O)NCc4ccc(-c5ccn[nH]5)cc4Cl)ccc32)n1

IC50 | SMILES
630 nM | CCOC(=O)c1noc(N)c1-c1ccccc1
250 nM | Cc1cc(NC(=O)C2CC2)ccc1OC1CCN(Cc2ccco2)CC1
> 40000 nM (inactive) | CCOc1cnn(C)c(=O)c1Nc1ccc(C(=O)NCc2ccc(F)cc2)cc1
630 nM | NC(=O)c1ncccc1Nc1nc(NC2CCC(O)CC2)ncc1Br (centres undefined)
> 40000 nM (inactive) | COc1cccc(Nc2cc(C)nc(-c3ccccn3)n2)c1
32000 nM | COc1ccc(S(=O)(=O)Nc2ccccc2OC)cc1NC(=O)CCCc1c[nH]c2ccccc12
160 nM | Cc1cc(NC(=O)CC2CCCCC2)n(-c2nc3c(c(=O)[nH]2)CCC3)n1
25000 nM | Cc1c(C#N)c([N+](=O)[O-])nn1Cc1cccc(Cl)c1Cl
400 nM | O=C(NCc1nnc2n1CCCCC2)c1csc(-c2ccccc2)n1
> 40000 nM (inactive) | O=C(c1ccc(Cl)cc1)c1ccc(OC(=O)N2CCOCC2)cc1
2000 nM | Cc1ccc(CNC2CCN(C[C@@H]3Cn4c(=O)ccc5ccc(=O)n3c54)CC2)cc1F
> 40000 nM (inactive) | CN(Cc1ccccc1)Cc1nnnn1C1CCN(Cc2ccc(-n3ccnc3)cc2)CC1
4000 nM | Cc1cc(C)n(-c2nc(NC(C)(C)C)nc(N3CCOCC3)n2)n1
16000 nM | O=C(CN(Cc1ccccn1)Cc1ccccn1)NCc1csc(-c2cccs2)n1
100 nM | Cc1cc(Br)sc1CNCCCNc1cc(=O)c2ccccc2[nH]1
160 nM | CCN(CC)S(=O)(=O)c1ccc(C)c(NC(=O)c2cc(Cl)c3c(c2)OCO3)c1
500 nM | COc1cc(Nc2nccc(Nc3onc(C)c3C)n2)cc(S(=O)(=O)C2CCOCC2)c1
5000 nM | CC(C)(C)Nc1nc(Nc2ccc3c(c2)CS(=O)(=O)C3)nc2[nH]ccc12
> 40000 nM (inactive) | CC1(Oc2cncc(Cl)c2)CCN(Cc2cc3ccccc3[nH]2)C1 (centres undefined)
250 nM | COc1ccc(C(=O)NC2CCN(CCn3c(=O)ccc4ncc(F)cc43)CC2)cc1Cl
> 40000 nM (inactive) | Cc1c([N+](=O)[O-])c(C(=O)Nc2sc3c(c2C#N)CCC(C)C3)nn1C (centres undefined)
> 40000 nM (inactive) | Cc1nnnn1-c1cccc(C(=O)N2CCC[C@@]3(C)c4ncncc4CCC23)c1 (some centres undefined)
> 40000 nM (inactive) | CN(Cc1nc2ccccc2s1)C(=O)C=Cc1cc2ccccc2o1
3200 nM | O=C(Nc1nc(-c2ccccn2)cs1)C1CCc2ccccc2C1 (centres undefined)
10000 nM | Cc1cccc(NS(=O)(=O)c2ccc3c(c2)C(=O)c2cc(S(=O)(=O)Nc4cccc(C)c4C)ccc2-3)c1C
25000 nM | CCN(CC)c1ccc(S(=O)(=O)N(CC)CC)c2nonc12

IC50 | SMILES
130 nM | O=C1NCc2cccc(Nc3nc(NC4CCC(O)CC4)ncc3Br)c21 (centres undefined)
790 nM | Cc1nc(-c2nc(NCc3ccc(Cl)cc3)c3cccnc3c2O)n[nH]1
500 nM | COc1ccc(C2CC(c3ccccc3Cl)=NN2C(=O)CNC(=O)C2CCC2)cc1 (centres undefined)
> 40000 nM (inactive) | Cc1cc(N2CCc3ccccc3C2)nc(Nc2ccc(S(=O)(=O)N3CCOCC3)cc2)n1
200 nM | NC(=O)c1ncc(N[C@@H]2CCCNC2)nc1Nc1cccc(Cl)c1
790 nM | C[C@@H](Oc1cc(-n2cnc3cc(N)ccc32)sc1C(N)=O)c1ccccc1Cl
320 nM | CN(Cc1nc2ccc(C(=O)NCC3CCCCC3)cc2[nH]1)C1CCCc2cccnc21 (centres undefined)
630 nM | CC(C)CC(=O)NC(c1cccs1)c1ccc2cccnc2c1O (centres undefined)
20000 nM | O=C(NCc1ccncc1)c1ccccc1N1CCCN(C(=O)Cc2ccc(F)c(F)c2)CC1
2500 nM | COc1ccc(-c2nc3ncccc3o2)cc1NC(=O)c1cccs1
630 nM | COc1ccc2ncc(Cl)c(CCN3CC[C@H](NCc4cc5c(cn4)OCS5)[C@@H](O)C3)c2n1
6300 nM | OCC1CCCCN1c1cc(-c2ccccn2)nc(Nc2ccccc2)n1 (centres undefined)
400 nM | CC(=O)Nc1cccc(Nc2ncnc3nc[nH]c23)c1
50 nM | CC(=O)Nc1ccc(Nc2nccc(-c3cnn4ncccc34)n2)cc1C(F)(F)F
10 nM | Nc1ncnc2c1ncn2[C@@H]1O[C@H](CO)C[C@H]1O
630 nM | Cc1[nH]n2c(=O)c3c(nc2c1-c1ccc(F)cc1)CCCC3
> 40000 nM (inactive) | CN1CCCN(C(=O)c2ccc(N3CCCC3)cc2Cl)CC1
20000 nM | COc1ccc([N+](=O)[O-])cc1NC(=O)Nc1cccc(Cl)c1
> 40000 nM (inactive) | CCN(Cc1cccs1)C(=O)CSc1nnc(-c2ccc3c(c2)OCO3)o1
630 nM | CCN(CC)S(=O)(=O)c1ccc(OC)c(NC(=O)c2ccc([N+](=O)[O-])s2)c1
630 nM | O=C(COc1ccccc1)Nc1ccccc1C(=O)Nc1nccs1
790 nM | COc1ccc(OC)c(S(=O)(=O)N(Cc2c(F)cccc2F)[C@@H]2CCN(C#N)C2)c1
16000 nM | Nc1nc(-c2ccccc2)cc(-c2nc3ncccc3[nH]2)n1
790 nM | COc1cccc(S(=O)(=O)Nc2ccc3c(c2)CC(N2CCC(NC(=O)C4CC4)CC2)C3)c1 (centres undefined)
> 40000 nM (inactive) | COc1cccc(-c2cc(C(F)(F)F)nc(-n3ccc([N+](=O)[O-])n3)n2)c1
> 40000 nM (inactive) | O=C(C1CCCCC1)N1CCN(c2nnc(-c3ccccc3)c3ccccc23)CC1

IC50 | SMILES
16000 nM | Cc1ccc(NC(=O)c2ccc(Cl)c(NC(=O)c3ccc([N+](=O)[O-])cc3)c2)cc1
> 40000 nM (inactive) | COc1ccc(C)cc1-c1csc(NC(=O)C(C)n2ccnc2)n1 (centres undefined)
20000 nM | Cc1ccccc1CNC(=O)CN(Cc1ccccn1)Cc1ccccn1
10000 nM | O=C(Nc1nc(-c2ccc(S(=O)(=O)N3CCOCC3)cc2)cs1)c1ccc([N+](=O)[O-])cc1
20000 nM | CC(CNS(=O)(=O)c1ccc(OC(F)F)cc1)c1ccc(NC(=O)c2ccncc2)cc1 (centres undefined)
> 40000 nM (inactive) | Cc1[nH]c2ccccc2c(=O)c1Cc1c(C)[nH]c2ccccc2c1=O
2000 nM | O=C(Nc1ccc(C(F)(F)F)cc1)Nc1cccc([N+](=O)[O-])c1
> 40000 nM (inactive) | OCCCNc1nc(Nc2ccncc2)nc2ccccc12
1000 nM | O=C(c1ccccc1)N1CCC(C(=O)N2CCC(Oc3ccccc3Cl)CC2)CC1
5000 nM | COc1ccc(C(C)N(C)c2ncc3c(N)nc(N)nc3n2)cc1F (centres undefined)
400 nM | CC1CCCN(S(=O)(=O)c2ccc(C(=O)Nc3nc(-c4ccccn4)cs3)cc2)C1 (centres undefined)
40000 nM | C=CCN(Cc1cccs1)C(=O)CSc1nnc(-c2ccc3c(c2)OCO3)o1
> 40000 nM (inactive) | FC(F)(F)c1cc(C2CCCN(Cc3c[nH]c4ccccc34)C2)nc2ncnn12 (centres undefined)
3200 nM | COc1ccc(-c2cnc(NC(=O)c3ccc(F)cc3)n2C)cc1
790 nM | CC(C)(C)CC(=O)NCc1noc(COc2ccccc2)n1
250 nM | Cn1nc(-c2ccc(NC(=O)Cc3ccccc3Cl)cc2)c2c(N)ncnc21
400 nM | O=C(NCC1CCCCN1C(=O)c1cccc2ccccc12)c1ccccc1 (centres undefined)
790 nM | O=C(CC1(O)C(=O)N(Cc2ccccc2)c2ccc(Br)cc21)c1cccnc1 (centres undefined)
63 nM | COc1cc(OC)cc(C(=O)N[C@@H](CC(C)C)C(=O)NC2(C#N)CC2)c1
40000 nM | CCN(C)Cc1ccc(N2CCC(NS(=O)(=O)c3ccc4c(c3)CCO4)CC2)nc1
> 40000 nM (inactive) | CS(=O)(=O)c1ccc(CC(=O)Nc2nc(-c3ccc(Cl)s3)cs2)cc1
4000 nM | CN(C)CCN(C)Cc1ccc(Cl)cc1NS(=O)(=O)c1ccc(Cl)c(Cl)c1
400 nM | Cc1nn2c(NCCCO)c3c(nc2c1-c1cccs1)CCC3
> 40000 nM (inactive) | Clc1ccc(OCCN2CCCCC2c2cccnc2)c(Cl)c1 (centres undefined)

SMILES | IC50
CC(C)(C)C(O)(CCc1ccc(Cl)cc1)Cn1cncn1 (centres undefined) | > 40000 nM (inactive)
COc1cc(C2SCC(=O)Nc3c2c(C)nn3-c2nc3ccccc3s2)cc(OC)c1O (centres undefined) | > 40000 nM (inactive)

— PubChem BioAssay AID1159562 (GlaxoSmithKline (GSK), 2015)
